Measurements taken from patent US7910593B2, “Water-soluble prodrugs” (Chugai Seiyaku Kabushiki Kaisha, priority 2004, dated 2011).

How the values were obtained:
[1] = Test Example 5: conversion of compound 2A into activated form in monkey sera; format: in vitro ADME; details: for compound 2A (measured values, %): Test Example 5, monkey sera, 50 μM, 37° C.
Description: (§1) The percentages of compound 2A produced in Example 2 being converted into an activated form in sera of humans, rats, mice, monkeys, and dogs were determined. The activated form is in a rapid equilibrium between the lactone form and the carboxylate form, which were quantified separately.
(§2) Compound 2A was incubated at 37° C. at a concentration of 50 μM in sera of humans, mice, rats, monkeys, and dogs. Incubation was terminated at a given time (0, 30, 60, 120, and 360 minutes), and the samples were analyzed by HPLC after deproteinization treatments.
(§3) Conditions for the HPLC analysis are as follows: • HPLC conditions • Column: Develosil C30-UG-3, 3 μm, 35×4.6 mm I.D • Column Temperature: constant temperature at approximately 25° C. • Mobile phase: A: 10 mM phosphate buffer (pH4.7) • B: acetonitrile • /B (min): 90/10(0)→90/10(0.4)→40/60(6)→2/98(8)→90/10(9)→90/10(15) • Flow rate: 1.0 mL/min • Detection: photodiode array detector, detection wavelength 350 nm • Amount injected: 30 μL
(§4) Generally, camptothecins in solution are in a rapid equilibrium between a structure in which the carbonyl at position 3 forms a 6-membered cyclic ester with the oxygen at position 2, and its open-ring structure. The lactone form refers to the former condition and the carboxylate form refers to the latter condition.

[2] = Test Example 5: conversion of compound 2A into activated form in dog sera; format: in vitro ADME; details: for compound 2A (measured values, %): Test Example 5, dog sera, 50 μM, 37° C.
Description: as §1, §2, §3, §4

[3] = Test Example 2: stability at various pH values in buffers; format: physicochemical; details: for Percent remaining: 25 μM, 25° C.
Description: The stability of compound 2A at various pH values was determined. The present compound was placed in buffers of various pHs at a concentration of 25 μM. After incubation at 25° C. for 0, 3, and 6 hours, the compound was analyzed by HPLC.
The buffers used at each pH are shown below. • pH2.0: 50 mM HCl-KCl buffer • pH3.0: 50 mM citrate buffer • pH4.0: 50 mM citrate buffer • pH5.0: 50 mM succinate buffer • pH6.5: 50 mM phosphate buffer • pH7.4: 50 mM phosphate buffer
Conditions for HPLC analysis are as follows: • HPLC conditions • Column: Develosil C30-UG-3, 3 μm, 50×4.6 mm I.D • Column Temperature: constant temperature at approximately 25° C. • Mobile phase: A: 10 mM phosphate buffer (pH4.7) • B: acetonitrile • (min): 90/10(0)→90/10(0.4)→40/60(6)→2/98(8)→90/10(9)→90/10(15) • Flow rate: 1.0 mL/min • Detection: photodiode array detector, detection wavelength 350 nm • Amount injected: 30 μL

[4] = Test Example 1: conversion of compound 2A into activated form in human serum; format: in vitro ADME; details: for compound 2A (measured values, %): human serum, 50 μM, 37° C.
Description: The percentages of compound 2A produced in Example 2 being converted into an activated form in sera of humans, mice, monkeys, and dogs were determined. The activated form is in a rapid equilibrium between the lactone form and the carboxylate form, which were quantified separately.
Compound 2A was incubated at 37° C. at a concentration of 50 μM in sera of humans, mice, monkeys, and dogs. Incubation was terminated at a given time (0, 30, 60, 120, and 360 minutes), and the samples were analyzed by HPLC after deproteinization treatments.
Conditions for the HPLC analysis are as follows: • HPLC conditions • Column: Develosil C30-UG-3, 3 μm, 50×4.6 mm I.D • Column Temperature: constant temperature at approximately 25° C. • Mobile phase: A: 10 mM phosphate buffer (pH4.7) • B: acetonitrile • /B (min): 90/10(0)→90/10(0.4)→40/60(6)→2/98(8)→90/10(9)→90/10(15)
Flow rate: 1.0 mL/min • Detection: photodiode array detector, detection wavelength 350 nm • Amount injected: 30 μL
as §4

[5] = Test Example 5: conversion of compound 2A into activated form in mouse sera; format: in vitro ADME; details: for compound 2A (measured values, %): Test Example 5, mouse sera, 50 μM, 37° C.
Description: as §1, §2, §3, §4

CCCCCN1C=Nc2cccc3nc4c(c1c23)Cn1c-4cc2c(c1=O)COC(=O)[C@@]2(CC)OC(=O)CN(C)C(=O)CN.Cl [Compound 2A, (9S)-9-Ethyl-9-(glycyl-sarcosyloxy)-1-pentyl-1H,12H-pyrano[3″,4″:6′,7′]indolizino[1′,2′:6,5]pyrido[4,3,2-de]quinazoline-10,13(9H,15H)-dione hydrochloride]
96.1%: Percent remaining ([3]; pH 4.0, 50 mM citrate buffer, 6 hr)
98.2%: Percent remaining ([3]; pH 4.0, 50 mM citrate buffer, 3 hr)
101.6%: Percent remaining ([3]; pH 2.0, 50 mM HCl-KCl buffer, 3 hr)
101.1%: Percent remaining ([3]; pH 2.0, 50 mM HCl-KCl buffer, 6 hr) | Percent remaining ([3]; pH 3.0, 50 mM citrate buffer, 6 hr)
0%: compound 2A (measured values, %) ([1]; incubation 0 minutes) | compound 2A (measured values, %) ([1]; incubation 30 minutes) | compound 2A (measured values, %) ([1]; incubation 60 minutes) | compound 2A (measured values, %) ([1]; incubation 120 minutes) | compound 2A (measured values, %) ([1]; incubation 360 minutes) | compound 2A (measured values, %) ([2]; incubation 0 minutes) | compound 2A (measured values, %) ([2]; incubation 30 minutes) | compound 2A (measured values, %) ([2]; incubation 60 minutes) | compound 2A (measured values, %) ([2]; incubation 120 minutes) | compound 2A (measured values, %) ([2]; incubation 360 minutes) | Percent remaining ([3]; pH 6.5, 50 mM phosphate buffer, 3 hr) | Percent remaining ([3]; pH 6.5, 50 mM phosphate buffer, 6 hr) | Percent remaining ([3]; pH 7.4, 50 mM phosphate buffer, 3 hr) | Percent remaining ([3]; pH 7.4, 50 mM phosphate buffer, 6 hr) | compound 2A (measured values, %) ([4]; incubation 0 minutes) | compound 2A (measured values, %) ([4]; incubation 30 minutes) | compound 2A (measured values, %) ([4]; incubation 60 minutes) | compound 2A (measured values, %) ([4]; incubation 120 minutes) | compound 2A (measured values, %) ([4]; incubation 360 minutes) | compound 2A (measured values, %) ([5]; incubation 0 minutes) | compound 2A (measured values, %) ([5]; incubation 30 minutes) | compound 2A (measured values, %) ([5]; incubation 60 minutes) | compound 2A (measured values, %) ([5]; incubation 120 minutes) | compound 2A (measured values, %) ([5]; incubation 360 minutes)
100%: Percent remaining ([3]; pH 2.0, 50 mM HCl-KCl buffer, 0 hr) | Percent remaining ([3]; pH 3.0, 50 mM citrate buffer, 0 hr) | Percent remaining ([3]; pH 4.0, 50 mM citrate buffer, 0 hr) | Percent remaining ([3]; pH 5.0, 50 mM succinate buffer, 0 hr) | Percent remaining ([3]; pH 6.5, 50 mM phosphate buffer, 0 hr) | Percent remaining ([3]; pH 7.4, 50 mM phosphate buffer, 0 hr)
quickly converted to the lactone form: conversion to the lactone form (in words) ([1]; monkey sera, Test Example 5) | conversion to the lactone form (in words) ([2]; dog sera, Test Example 5) | conversion to the lactone form (in words) ([4]; human sera, Test Example 1) | conversion to the lactone form (in words) ([5]; mouse sera, Test Example 5)
stable: stability (in words) ([3]; up to pH3)
100.3%: Percent remaining ([3]; pH 3.0, 50 mM citrate buffer, 3 hr)
76.6%: Percent remaining ([3]; pH 5.0, 50 mM succinate buffer, 3 hr)
58.7%: Percent remaining ([3]; pH 5.0, 50 mM succinate buffer, 6 hr)
